Assay results as given in patent US20050042239A1, “Process for preparing biocide formulations” (priority 2003, published 2005).

Assays:
algae = assay: Dosing of micro-mixed emulsion to cooling tower water: control of algae; conditions: 3 ppm isothiazolone in cooling water of cooling tower
Method: A 50 wt. % solution of 4,5-dichloro-2-octyl-3-isothiazolone in benzyl alcohol is fed to an array of slit shaped interdigital micro-mixers at a feed rate of 50 mL/minute, combined with water fed to the micro-mixer at a feed rate of 600 mL/minute. The water contains no surfactants. The resulting emulsion exiting the micro-mixer it is directly dosed to cooling water in a 50,000 gallon […] cooling tower, where is effectively distributed and re-circulated throughout the cooling water. After about 20 minutes, the isothiazolone concentration in the cooling water reaches a desired concentration of 3 ppm and the emulsion feed is stopped. […] Focusing micro-mixers also produce similar results as compared to the micro-mixers described above. Melted 2-octyl-3-isothiazolone as a neat liquid is fed to an array of slit shaped interdigital micro-mixers at a feed rate of 50 mL/minute, combined with water fed to the micro-mixer at a feed rate of 600 mL/minute. The water contains no surfactants and solvents. The resulting emulsion exiting the micro-mixer it is directly dosed to cooling water in a 50,000 gallon […] cooling tower, where is effectively distributed and re-circulated throughout the cooling water. After about 20 minutes, the isothiazolone concentration in the cooling water reaches a desired concentration of 3 ppm and the emulsion feed is stopped. […]

mold = assay: Dosing of micro-mixed emulsion to paper pulp slurry tank: mold proofing of paper; conditions: surfactant-free emulsion from 50 wt. % solution in benzyl alcohol (56 mL/minute) micro-mixed with water, charged to 10,000 liter pulp slurry tank
Method: A 10,000 liter pulp slurry tank has a continuous throughput averaging 6,600 liters/minute. A 50 wt. % solution of 4,5-dichloro-2-octyl-3-isothiazolone in benzyl alcohol is fed to an array of slit shaped interdigital micro-mixers at a feed rate of 56 mL/minute, combined with water fed to the micro-mixer at a feed rate of 600 mL/minute. The water contains no surfactants. The resulting emulsion exiting the micro-mixer is directly charged to water in the pulp slurry tank, where it is effectively distributed and re-circulated throughout the tank water. […] Focusing micro-mixers also produce similar results as compared to the micro-mixers described above.

Row | Structure (SMILES) | control of algae in cooling water (algae; surfactant- and solvent-free emulsion from melted neat liquid micro-mixed with water) | mold proofing in paper prepared from treated pulp (mold) | control of algae in cooling water (algae; surfactant-free emulsion from 50 wt. % solution in benzyl alcohol micro-mixed with water)
1 | CCCCCCCCn1sccc1=O [2-octyl-3-isothiazolone] | Effective control of algae |  | 
2 | CCCCCCCCn1sc(Cl)c(Cl)c1=O [4,5-dichloro-2-octyl-3-isothiazolone] |  | effective mold proofing | Effective control of algae
